Results as given in the supplement of paper PMC10307832.

Columns and labels:
Experiment in all cases: relative viability (nuclei count vs DMSO), 5 days (fraction); higher = more cells survive
[1] = compound: NC1(c2ccc(-c3nc4ccn5c(=O)[nH]nc5c4cc3-c3ccccc3)cc2)CCC1 [MK-2206] + CC1(C)CCC(c2ccc(Cl)cc2)=C(CN2CCN(c3ccc(C(=O)NS(=O)(=O)c4ccc(N[C@H](CCN5CCOCC5)CSc5ccccc5)c(S(=O)(=O)C(F)(F)F)c4)cc3)CC2)C1 [Navitoclax] (partner 0.5 µM)
How it was run: (§1)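 Lung cancer cell lines in 1536-well plates were dosed by pin tool the day after seeding, either with one drug alone or with a fixed anchor-drug dose plus five library-drug doses (not always all listed) in √10 steps. After 5 days, cells were fixed and their nuclei stained in one step (final 0.05% Triton X-100, 1% formaldehyde, 1 ug/ml Hoechst), then counted on 4× images. Relative viability is the nuclei count in treated wells divided by that in vehicle wells. Values are medians of duplicate plates.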

[2] = compound: NC1(c2ccc(-c3nc4ccn5c(=O)[nH]nc5c4cc3-c3ccccc3)cc2)CCC1 [MK-2206] + Nc1ncn([C@H]2C[C@H](O)[C@@H](CO)O2)c(=O)n1 [Decitabine] (partner 2 µM)
How it was run: as §1

[3] = compound: CS(=O)(=O)N1CCN(Cc2cc3nc(-c4cccc5[nH]ncc45)nc(N4CCOCC4)c3s2)CC1 [Pictilisib] + N=C(N)NC(=N)NCCc1ccccc1 [Phenformin] (partner 250 µM)
How it was run: as §1

[4] = compound: CS(=O)(=O)N1CCN(Cc2cc3nc(-c4cccc5[nH]ncc45)nc(N4CCOCC4)c3s2)CC1 [Pictilisib] + CS(=O)(=O)CCNCc1ccc(-c2ccc3ncnc(Nc4ccc(OCc5cccc(F)c5)c(Cl)c4)c3c2)o1 [Lapatinib] (partner 2 µM)
How it was run: as §1

[5] = compound: NC1(c2ccc(-c3nc4ccn5c(=O)[nH]nc5c4cc3-c3ccccc3)cc2)CCC1 [MK-2206] + CCNC(=O)c1noc(-c2cc(C(C)C)c(O)cc2O)c1-c1ccc(CN2CCOCC2)cc1 [Luminespib] (partner 0.01 µM)
How it was run: as §1

Row | Cell Line | relative viability ([1]; first compound 0.01 µM) | relative viability ([1]; first compound 0.03162 µM) | relative viability ([1]; first compound 0.3162 µM) | relative viability ([1]; first compound 1 µM) | relative viability ([2]; first compound 0.01 µM) | relative viability ([2]; first compound 0.03162 µM) | relative viability ([2]; first compound 0.3162 µM) | relative viability ([2]; first compound 1 µM) | relative viability ([3]; first compound 0.02 µM) | relative viability ([3]; first compound 0.06325 µM) | relative viability ([3]; first compound 0.6325 µM) | relative viability ([3]; first compound 2 µM) | relative viability ([4]; first compound 0.02 µM) | relative viability ([4]; first compound 0.06325 µM) | relative viability ([4]; first compound 0.6325 µM) | relative viability ([4]; first compound 2 µM) | relative viability ([5]; first compound 0.01 µM) | relative viability ([5]; first compound 0.03162 µM) | relative viability ([5]; first compound 0.3162 µM) | relative viability ([5]; first compound 1 µM)
1 | NCI-H2023 | 0.985 | 1.06 | 0.895 | 0.716 | 0.247 | 0.225 | 0.243 | 0.211 | 0.43 | 0.376 | 0.275 | 0.169 | 0.78 | 0.611 | 0.349 | 0.243 | 0.681 | 0.66 | 0.619 | 0.413
2 | NCI-H2085 | 1.09 | 1.19 | 0.902 | 0.825 | 0.511 | 0.584 | 0.513 | 0.514 | 0.725 | 0.688 | 0.387 | 0.291 | 0.767 | 0.767 | 0.535 | 0.391 | 0.508 | 0.393 | 0.489 | 0.384
3 | NCI-H2087 | 1.14 | 0.905 | 0.906 | 0.912 | 0.244 | 0.273 | 0.24 | 0.196 | 0.483 | 0.439 | 0.468 | 0.28 | 1.12 | 0.926 | 1.06 | 0.952 | 0.158 | 0.155 | 0.187 | 0.128
4 | NCI-H2126 | 0.821 | 0.814 | 0.782 | 0.793 | 0.575 | 0.528 | 0.526 | 0.574 | 0.49 | 0.501 | 0.38 | 0.31 | 0.801 | 0.748 | 0.63 | 0.462 | 0.9 | 0.877 | 0.856 | 0.752
5 | NCI-H2170 | 0.65 | 0.485 | 0.546 | 0.512 | 0.482 | 0.462 | 0.462 | 0.443 | 0.394 | 0.444 | 0.424 | 0.365 | 0.285 | 0.306 | 0.226 | 0.245 | 0.697 | 0.822 | 0.616 | 0.557
6 | NCI-H2347 | 0.752 | 0.883 | 0.684 | 0.883 | 0.585 | 0.573 | 0.591 | 0.557 | 0.451 | 0.461 | 0.325 | 0.207 | 0.86 | 0.973 | 0.992 | 0.729 | 0.46 | 0.399 | 0.426 | 0.721
7 | NCI-H2405 | 0.838 | 1.06 | 0.83 | 0.779 | 0.766 | 0.788 | 0.72 | 0.74 | 0.4 | 0.386 | 0.364 | 0.23 | 1.2 | 1.05 | 0.801 | 0.505 | 0.713 | 0.853 | 0.532 | 0.559
8 | NCI-H3122 | 1.02 | 1.03 | 1.01 | 0.958 | 0.38 | 0.416 | 0.396 | 0.426 | 0.402 | 0.4 | 0.394 | 0.284 | 1.01 | 1.15 | 1.13 | 0.737 | 0.118 | 0.1 | 0.0816 | 0.084
9 | PC-3 [JPC-3] | 0.817 | 0.849 | 0.83 | 0.825 | 0.806 | 0.807 | 0.855 | 0.852 | 0.493 | 0.539 | 0.487 | 0.405 | 0.439 | 0.461 | 0.426 | 0.319 | 0.601 | 0.652 | 0.627 | 0.705
10 | PC-14 | 0.956 | 1.05 | 1.1 | 1.01 | 0.22 | 0.248 | 0.215 | 0.253 | 0.858 | 0.719 | 0.621 | 0.386 | 0.34 | 0.302 | 0.236 | 0.113 | 0.181 | 0.214 | 0.143 | 0.159
11 | RERF-LC-KJ | 0.836 | 1.28 | 0.708 | 0.69 | 0.788 | 0.677 | 0.599 | 0.62 | 0.409 | 0.35 | 0.343 | 0.307 | 0.86 | 0.842 | 0.771 | 0.549 | 1.27 | 1.11 | 0.971 | 1.06
12 | SK-LU-1 | 1.01 | 0.992 | 1.08 | 0.874 | 0.648 | 0.592 | 0.613 | 0.555 | 0.648 | 0.509 | 0.393 | 0.308 | 0.977 | 0.792 | 0.665 | 0.481 | 0.217 | 0.209 | 0.211 | 0.195
13 | SK-MES-1 | 1.29 | 1.2 | 1.01 | 1.1 | 0.383 | 0.4 | 0.371 | 0.321 | 0.692 | 0.686 | 0.621 | 0.558 | 0.468 | 0.41 | 0.389 | 0.27 | 0.901 | 0.756 | 0.751 | 0.751
14 | SW 1573 | 0.876 | 0.937 | 0.714 | 0.737 | 0.505 | 0.43 | 0.502 | 0.453 | 0.387 | 0.318 | 0.215 | 0.166 | 1.12 | 1.28 | 0.89 | 0.55 | 0.275 | 0.192 | 0.201 | 0.184
